“Also recorded” adds a separate entry of the source.
Experiments:
Assay type in all cases: in vivo
Fmr1 KO2 mice [1] = experiment: Open field (hyperactivity); settings: 5 mg/kg by subcutaneous osmotic minipump, 15 days chronic treatment, 3 min observation
From the text: (§1) Fmr1 knockout 2 (Fmr1 KO2) mice were generated by deletion of the promoter and first exon of Fmr1. The Fmr1 KO2 it is both, protein and mRNA null. In this study we used Fmr1 KO2 and wild-type (WT) littermates generated on a C57BL/6J background and repeatedly backcrossed onto a C57BL/6J background for more than eight generations.
There were four treatment groups per compound in the study with 10 male mice used per treatment group (all at 8 weeks of age): Group 1: Fmr1 KO2 mice treated with vehicle (Fmr1 KO2-V), Group 2: wild-type littermate mice treated with vehicle (WT-V), Group 3: Fmr1 KO2 mice treated with sulindac (Fmr1 KO-Sulindac) and Group 4: wild-type littermate mice treated with sulindac (WT-Sulindac) […]
(§2) For experiments, all mice were tested once in the same apparatus. […] We assessed weight loss, fur loss, walking, eyes open, eye discharges and general behavior.
The open-field apparatus was used to test hyperactivity. […] The number of squares entered by the whole body (locomotor activity) was counted. The movement of the mouse around the field was recorded with a video tracking device for 3 min (version NT4.0, Viewpoint).
(§3) Data were analyzed by two-way analysis of variance (ANOVA) followed by post-test comparisons where appropriate using Tukey's Multiple Comparison Test. […]

Fmr1 KO2 mice [2] = experiment: Three-chambered sociability task (social interaction); settings: 5 mg/kg by subcutaneous osmotic minipump, 15 days
From the text: as §1
(§4) There were four treatment groups per compound in the study with 10 male mice used per treatment group (all at 8 weeks of age): Group 1: Fmr1 KO2 mice treated with vehicle (Fmr1 KO2-V), Group 2: wild-type littermate mice treated with vehicle (WT-V), Group 3: Fmr1 KO2 mice treated with sulindac (Fmr1 KO-Sulindac) and Group 4: wild-type littermate mice treated with sulindac (WT-Sulindac)
(§5) Sulindac: 5 mg/kg by osmotic minipumps (ALZET Osmotic Pumps Cupertino, Calif., USA) implanted subcutaneously for 15 days delivery.
as §2
In the three-chambered sociability task, a subject mouse was evaluated for its exploration of a novel social stimulus (novel mouse). […] The time spent exploring the novel mice was scored as exploration ratio.
as §3

Fmr1 KO2 mice [3] = experiment: Nesting; settings: 5 mg/kg by subcutaneous osmotic minipump, 15 days, listed as sulindac
From the text: as §1, §4, §5, §2
The test was performed in individual cages. […] Mice were placed individually into the nesting cages 1 hr. before the dark phase, and the results were assessed the next morning. Nest building was scored on a 5 point scale. […]
as §3

Fmr1 KO2 mice [4] = experiment: Contextual fear conditioning; settings: 5 mg/kg by subcutaneous osmotic minipump, 15 days, KO not different from WT
From the text: as §1, §4, §5
For experiments, all mice were tested once in the same apparatus. Prior to testing, mice were placed in the apparatus for some minutes before the experiment. The apparatus was cleaned with moist and dry tissues before testing each mouse. […] We assessed weight loss, fur loss, walking, eyes open, eye discharges and general behavior. […]
as §3

## CC1=C(CC(=O)O)c2cc(F)ccc2/C1=C\c1ccc([S+](C)[O-])cc1 (stereo not drawn) [Sulindac, (Z)-5-fluoro-2-methyl-1-[[p-(methylsulfinyl)phenyl]methylene]-1H-indene-3-acetic acid]
Fmr1 KO2 mice [1]
  hyperactivity in open field (locomotor activity, number of squares entered): fully rescuing; also recorded: normalizes hyperactivity
Fmr1 KO2 mice [2]
  sociability (exploration index of the novel mouse): partially improved such impairment
Fmr1 KO2 mice [2]; listed as sulindac
  sociability (exploration index of the novel mouse): partially rescuing
Fmr1 KO2 mice [3]
  nesting behavior (nest building score, 5 point scale): fully rescuing; also recorded: normalization in nesting behavior
Fmr1 KO2 mice [4]; p=0.3968
  freezing in contextual memory test (learning and memory): ameliorates the Fmr1 KO deficit in learning and memory
Fmr1 KO2 mice [4]; p=0.3968, listed as sulindac
  freezing in contextual memory test (learning and memory): partially rescuing
